Reference: patent US20110104121A1, “Female Reproductive Tract and Anal Prophylaxes” (priority 2008, published 2011)

B1: Lactobacillus-derived CV-N: HIV inhibitor Cyanovirin-N produced by engineered vaginal Lactobacillus (protein, UniProt P81180 1-101, looked up)
Cyanovirin-N: LGKFSQTCYNSAIQGSVLTSTCERTNGGYNTSSIDLNSVIENVDGSLKWQPSNFIETCRNTQLAGSSELAAECKTRAQQFVSTKINLDDHIANIDGTLKYE
modifications: produced in engineered Lactobacillus

Legend:
[1] = tested on: uterine cells; assay: relative mRNA expression of SLPI and defensins in uterine cells; format: cell-based; details: for relative uterine alpha defensin 2 expression: saline control ~0.2×10^5; for relative beta defensin 4 mRNA expression in uterine cells: saline control ~0.4×10^5
Description: (§1) The analysis of SERM activity is carried out using fresh hysterectomy tissues, wherein epithelial cells, neutrophils, NK cells and macrophage/dendritic cells (MAC/DC), which are known to be responsive in culture to sex hormones, are recovered. Using conventional assays, SERMs (e.g., Tamoxifen, bazedoxifene acetate, lasofoxifene and raloxifene, etc) are analyzed for their ability to regulate immunological endpoints which have been identified as optimal for protection against HIV. […] Similarly, ICI 182,780 increased relative vaginal SLPI mRNA levels by 26-fold over saline controls. Furthermore, ICI 182,780, tamoxifen, and Y134 increased relative uterine alpha defensin 2 expression (˜3×10^5, ˜4×10^5, and −1.2×10^6, respectively) compared to ˜0.2×10^5 in the saline control. ICI 182,780, Y134, and PHTPP were also found to increase relative vaginal alpha defensin 2 expression (˜2.4×10^5, ˜4×10^5, and ˜1.6×10^5, respectively) compared to −7.5×10^4 in the saline control.

[2] = tested on: vaginal cells; assay: relative mRNA expression of SLPI and defensins in vaginal cells; format: cell-based; details: for relative mRNA expression of beta defensin 1 in vaginal cells: saline control ~1.1×10^8; for relative vaginal alpha defensin 2 expression: saline control printed −7.5×10^4
Description: as §1

[3] = tested on: primary uterine epithelial cells; assay: MIP3 alpha secretion by primary uterine epithelial cells, ELISA; format: cell-based, mice; details: 20 hours, 37° C., vs media control
Description: FIG. 1 depicts levels of MIP3 alpha secretion by primary uterine epithelial cells at 20 hours after exposure to estrogen, ICI […] or the SERMs indicated. P value is comparison to media control.
Indeed, FIG. 1 summarizes the effects of estradiol (estrogen) and four known SERMS on the secretion of MIP3 alpha (aka CCL20), a known potent endogenous antimicrobial peptide, by primary uterine epithelial cells in culture. Epithelial cells were isolated from the uteri of intact mice by enzymatic digestion prior to incubation at 37° C. in the presence or absence of known SERMS for 20 hours. Following incubation in 96-well plates, media was collected and assayed by ELISA for MIP3 alpha.

[4] = tested on: primary uterine epithelial cells; assay: mouse KC (IL8) secretion from primary uterine epithelial cells; format: cell-based; details: 24-hour treatment
[5] = tested on: Monocytes-derived Dendritic cells (MDDCs); assay: surface receptor expression on monocyte-derived dendritic cells, flow cytometry; format: cell-based, human
Description: Materials and Methods. Uterine epithelial cell line (ECC-1) was cultured according to established methods to establish cellular polarity with apical and basolateral compartments (Schaefer, et al. (2004) Immunology 112:428-436). The formation of tight junctions by the epithelial cell monolayer was routinely monitored by measurement of transepithelial resistance (TER) (Richardson, et al. (1995) Biol. Reprod. 53:488-498). […] The pooled media was centrifuged for 5 minutes at 10,000 g and stored at −80° C. for use in subsequent studies.
Peripheral blood mononuclear cells (PBMC) were obtained from residues of platelet pheresis according to known methods (Dietz, et al. (2006) Transfusion 46:2083-2089). Monocytes were subsequently enriched with Rosette Sep reagent (StemCell, Vancouver, BC). Blood specimens were from healthy adult males. Monocytes-derived Dendritic cells (MDDCs) were in vitro generated with GM-CSF (50 ng/ml) and IL-4 (50 ng/ml) (PeproTech Inc, Rocky Hill, N.J.) (Sallusto Lanzavecchia (1994) J. Exp. Med. 179:1109-1118). MDDCs were differentiated for 7 days in the presence or absence of 24-hour conditioned medium (1:1 dilution) obtained from ECC-1. In some experiments TGF-beta receptor 1 blocker, SB431542 (10 μM; Tocris Cookson, Inc., St. Louis, Mo.) (Eriksson, et al. (2006) Am. J. Reprod. Immunol. 56:321-328; Shen, et al. (2007) Clin. Exp. Immunol. 149(1):155-61) was simultaneously added with ECC-1 CM for the entire duration of the differentiation. As positive control for TGF-beta effects on MDDCs, experimental conditions were included in which MDDCs were differentiated with recombinant human TGF-beta1 at three different concentrations (0.1, 1 and 10 ng/mL) in the presence or absence of SB431542. Following 7 days of culture, cells were harvested, washed and subsequently used for flow cytometry analyses.
Following six days of in vitro differentiation, surface staining of MDDCs was performed with the following fluorochrome-labeled monoclonal antibodies: CD1a (HI149), CD14 (61D3), from Ebioscience (San Diego, Calif.); and CD163 (215927), CCR5 (45531), CXCR4 (12G5), DC-SIGN (120507) from R&D Systems (Minneapolis, Minn.). Matched isotype controls for the antibodies were used to control for non-specific binding. Following antibody staining, cells were washed with staining buffer and fixed with 2% methanol-free paraformaldehyde in 1×PBS (2% PFA), followed by analysis with a Becton Dickinson FACS CALIBUR (San Jose, Calif.). The acquired FACS data were analyzed by CELL QUEST (BD Biosciences).
Statistical analysis was performed using two-way analysis of variance (ANOVA) ([…] Prism Version 5.0; […] Software Inc., San Diego, Calif.). A value of P<0.05 was considered significant.

[6] = tested on: uterine stromal fibroblasts; assay: HGF secretion by uterine stromal fibroblasts, ELISA; format: cell-based, human
Description: (§2) Materials and Methods. FRT mucosal tissue was obtained following surgery from women who underwent hysterectomies. Tissues used in this study were distal to the sites of pathology and were determined to be unaffected by disease upon inspection by a trained pathologist. Tissues were transported from Pathology and procedures to isolate stromal fibroblasts began within 2 hours of surgery.
Tissues from the Fallopian tube, uterus, cervix, and ectocervix were dispersed into epithelial and stromal cell fractions by enzymatic digestion (Fahey, et al. (1998) Immunol. Invest. 27:167-180; Meter, et al. (2005) Fertil. Steril. 84:191-201). Briefly, tissues were minced under sterile conditions into 1-2 mm fragments and then digested at 37° C. for 1 hour using a “PHC” enzyme mixture that contained final concentrations of 3.4 mg/ml pancreatin (Gibco Life Technologies, Rockville, Md.), 0.1 mg/ml hyaluronidase (Worthington Biochemical Corporation, Freehold, N.J.), 1.6 mg/ml collagenase (Worthington) and 2 mg/ml D-glucose (Sigma, St Louis, Mo.) in Hank's balanced salt solution (Gibco, Invitrogen). This procedure was chosen to maximize digestion of the extracellular matrix, as verified by microscopy and by hematoxylin and eosin staining of frozen sections after digestion, while minimizing digestion of cell surface antigens as determined by flow cytometry. After incubating in this enzyme cocktail, cells and tissue fragments were collected, washed with complete media consisting of DMEM/F-12 without phenol red (Gibco) supplemented with 10% heat-inactivated fetal calf serum (Hyclone, Logan, Utah), 2 mM fresh L-glutamine, 25 mM HEPES, […] primocin (InvivoGen, San Diego, Calif.) and separated from tissue aggregates by sedimentation for 5 minutes. Medium containing predominantly single cells and small epithelial cell glands were removed and dispersed through a 250 μm nylon mesh screen (Small Parts, Miami Lake, Fla.). […]
(§3) Stromal cell fractions were washed, resuspended in complete media, and cultured in T75 flasks. […] When confluent, the cells in the flask were counted and sub-cultured into 24 well culture plates (Fisher Scientific, Pittsburgh, Pa.). […]
Once the cells reached confluence, they were cultured in complete media with 10% stripped FBS (Hyclone). […] In related experiments, when cell proliferation was analyzed, harvested from culture wells and counted by Coulter Counter. […] Viability of the cultures was determined using trypan blue dye exclusion and manual counting of live vs. dead cells on a hemocytometer. […]

[7] = tested on: cervix stromal fibroblasts; assay: HGF secretion by cervix stromal fibroblasts, ELISA; format: cell-based, human; details: estradiol
Description: as §2
(§4) Tissues from the Fallopian tube, uterus, cervix, and ectocervix were dispersed into epithelial and stromal cell fractions by enzymatic digestion (Fahey, et al. (1998) Immunol. Invest. 27:167-180; Meter, et al. (2005) Fertil. Steril. 84:191-201). […] This procedure was chosen to maximize digestion of the extracellular matrix, as verified by microscopy and by hematoxylin and eosin staining of frozen sections after digestion, while minimizing digestion of cell surface antigens as determined by flow cytometry. […]
as §3
(§5) Once the cells reached confluence, they were cultured in complete media with 10% stripped FBS (Hyclone). […] In related experiments, when cell proliferation was analyzed, harvested from culture wells and counted by Coulter Counter. […]

[8] = tested on: ectocervix stromal fibroblasts; assay: HGF secretion by ectocervix stromal fibroblasts, ELISA; format: cell-based, human; details: estradiol
Description: as §2, §4, §3, §5

[9] = tested on: female macrophages; assay: LPS-induced TNFalpha secretion by female macrophages; format: cell-based
[10] = tested on: CCR5-tropic HIV; details: in vitro; read-out: 50% inhibitory concentration, CCR5-tropic HIV infectivity; cited from earlier work
[11] = Table 4, control vehicle, N = 3
[12] = Table 5, control vehicle, N = 3

Molecule | increase in relative uterine SLPI mRNA levels over saline controls [1] | relative uterine alpha defensin 2 expression [1] | relative beta defensin 4 mRNA expression in uterine cells [1] | relative mRNA expression of beta defensin 2 in vaginal cells [2] | relative mRNA expression of beta defensin 1 in vaginal cells [2] | MIP3 alpha secretion [3] | secretion of mouse KC (IL8) [4] | TNFalpha (% of Control) [9, 11] | TNFalpha (% of Control) [9, 12] | relative vaginal alpha defensin 2 expression [2] | also measured
CC/C(=C(\c1ccccc1)c1ccc(OCCN(C)C)cc1)c1ccccc1 [tamoxifen] | ~2.5×10^5 | ~4×10^5 | ~6×10^5 | not significantly affected | ~1.75×10^8 | marginal effect | marginal effect | – | – | – | relative beta defensin 4 mRNA expression in vaginal cells ([2]; saline control ~1×10^7): ~2.1×10^8
C[C@]12CC[C@@H]3c4ccc(O)cc4CC[C@H]3[C@@H]1CC[C@@H]2O [E2, 17β-estradiol] | – | – | – | – | – | no effect | – | 73.96 ± 3.00 % of Control | 73.96 ± 3.00 % of Control | – | DC-SIGN expression on immature DCs [5]: increases; uterine stromal fibroblast HGF secretion ([6]; 10^−7 M or 10^−8 M estradiol, within 48 hours): significantly increased; estradiol response of HGF at 24 hours, responding patients ([6]; 24 hours after addition of estradiol): two out of five patients; cell numbers, control vs estradiol-treated wells ([6]; counted at 48-hour intervals): did not differ; HGF secretion, six days vs two days of exposure ([6]; estradiol 2, 4, 6 days, CM collected at 48 hour intervals): three times more HGF; HGF secretion by cervix stromal fibroblasts [7]: did not increase; secretion of HGF from ectocervix stromal fibroblasts [8]: no effect; TNFalpha (% of Control) ([9]; E2 0.001 nM, control no E2, N = 4): 98.35 ± 3.19 % of Control; TNFalpha (% of Control) ([9]; E2 0.01 nM, control no E2, N = 4): 97.72 ± 6.89 % of Control; TNFalpha (% of Control) ([9]; E2 0.1 nM, control no E2, N = 4): 94.68 ± 11.62 % of Control
C[C@]12CC[C@@H]3c4ccc(O)cc4C[C@@H](CCCCCCCCC[S+]([O-])CCCC(F)(F)C(F)(F)F)[C@H]3[C@@H]1CC[C@@H]2O (stereo partly shown) [ICI 182,780] | ~3×10^5 | ~3×10^5 | – | not significantly affected | ~2.15×10^8 | significantly increased | significantly increased | 111.87 ± 15.68 % of Control | – | ~2.4×10^5 | increase in relative vaginal SLPI mRNA levels over saline controls [2]: 26 fold
Oc1ccc(-c2c(-c3ccccc3)nn3c(C(F)(F)F)cc(C(F)(F)F)nc23)cc1 [PHTPP] | ~8×10^5 | – | ~8×10^5 | not significantly affected | – | marginal effect | marginal effect | – | 79.96 ± 6.43 % of Control | ~1.6×10^5 | relative mRNA expression of beta defensin 2 in uterine cells ([1]; saline control ~1×10^5): ~1.55×10^8; relative mRNA expression of beta defensin 1 in uterine cells ([1]; saline control ~1.1×10^6): ~1.05×10^8
B1 | – | – | – | – | – | – | – | – | – | – | IC50 [10]: 0.3 nM
